Where two headings read alike, the source gives them in different places.
Legend:
A549 = assay: Western blots of treated A549 cells; type: cell-based
Experimental: (§1) In order to further examine the mechanism of action of the therapeutic compound four lung cancer cell lines were treated with various concentrations of drug and western blots performed on cell extracts after 24 hr.

H1299 = assay: Western blots of treated H1299 cells; type: cell-based
Experimental: as §1

8226-MR20 = assay: MTS viability assay, 8226-MR20; type: cell-based; settings: Homo sapiens
Experimental: Cells were collected 24 hours post drug exposure and extracts subjected to western blotting using antibodies to the indicated proteins. Cleavage of PARP indicates apoptosis.
To examine its effect on a range of commonly studied cell lines, the inventors utilized standard MTS assays to quantify cell viability following the therapeutic compound treatment. Cytotoxicity was determined using MTS assays, which were conducted using a CellTiter 96® AQueous One Cell Proliferation Assay Kit (Promega) following the published protocol. Cells in 0.1 ml volume were plated in triplicate into 96-well plates, 1×10^4 cells/well. the therapeutic compound was added and after 24 hours of incubation at 37° C., 20 μl of MTS dye was added to each well. Plates were read at 490 nm following 4 hrs MTS reaction time. The concentration of drug which produced a 50% inhibition of growth (IC50) was calculated from linear regression analysis of the linear portion of the growth curves.

E2F4 [1] = target: T1, E2F4 (Homo sapiens, UniProt Q16254); assay: Whole-membrane E2F4 western for cleavage products; type: cell-based; set-up: endogenous in cells; settings: 40 uM
Target sequence in this assay (Q16254 whole entry): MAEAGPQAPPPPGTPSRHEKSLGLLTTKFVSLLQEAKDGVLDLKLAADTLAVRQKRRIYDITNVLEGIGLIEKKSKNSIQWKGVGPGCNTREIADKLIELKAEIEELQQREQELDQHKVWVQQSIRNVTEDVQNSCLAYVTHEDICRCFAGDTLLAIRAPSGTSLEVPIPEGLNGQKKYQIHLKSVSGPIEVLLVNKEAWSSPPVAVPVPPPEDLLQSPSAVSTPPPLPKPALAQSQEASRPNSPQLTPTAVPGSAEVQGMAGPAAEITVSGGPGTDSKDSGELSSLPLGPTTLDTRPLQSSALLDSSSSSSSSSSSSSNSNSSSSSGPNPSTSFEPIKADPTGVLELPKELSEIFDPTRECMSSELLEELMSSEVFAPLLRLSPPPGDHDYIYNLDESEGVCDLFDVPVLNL
Experimental: The indicated cell lines were treated with 40 micromolar the therapeutic compound and subjected to western blotting 24 hrs later. In this case, the entire lanes were subjected to western blot with an E2F4 antibody in order to detect potential immunoreactive truncation products.
For this experiment cells were treated with 40 uM the therapeutic compound and were subjected to western blotting. However, rather than cut the western membrane into three pieces (to probe simultaneously for three proteins of different sizes) the entire membrane was used to reveal smaller immunoreactive bands.

A375 = assay: Apo-BrdU TUNEL apoptosis assay, A375; type: cell-based, human; settings: 40-μM, 24-hrs
From the text: (§2) To determine if treatment with the therapeutic compound contributes to apoptosis, Cells were detached from culture plates by trypsin treatment, washed twice with PBS, and fixed in 70% ethanol. Fixed cells were washed twice with PBS and treated with RNase A and propidium iodide (PI). PI staining was examined using a Becton-Dickinson FACScan instrument and Cell Quest software. TUNEL assay for apoptosis utilized a Pharmingen APO-BRDU Kit. MTS (3-(4,5-dimethylthiazol-2-yl)-5-(3-carboxymethoxyphenyl)-2-(4-sulfophenyl)-2H-tetrazolium, inner salt) assays were conducted using a CellTiter 96® AQueous One Cell Proliferation Assay Kit (Promega).
(§3) A375, MDA-MB-231 (231), MCF-7 and human foreskin fibroblasts (HFF) cells were treated with 40-μM of the therapeutic compound for 24-hrs and subjected to a FACS based terminal deoxynucleotidyl transferase (TUNEL) assay (Apo-BrdU Kit from BD Pharmingen).

231 cells = assay: RNase protection assay, 231; type: cell-based, human
Experimental: The indicated breast cancer lines were treated with 40 micromolar the therapeutic compound and subjected RNAse protection assay 24 hrs later using the indicated probes.
An RNase protection assay was performed to determine if downregulation of the Rb family members at the level of mRNA could account for the downregulation of the proteins. Two breast cancer cell lines were examined at 0, 3, 6, 9, 18 and 24 hr following the therapeutic compound treatment (FIG. 21).

NCI60 cell lines = assay: NCI60 drug screen; type: cell-based; settings: NCI standard concentration
From the text: FIG. 16: HLM006474 was submitted to the National Cancer Institutes Developmental Therapeutic Program NCI60 Drug Screening Program. […] Results are reported as mean growth percent less growth percent.
The therapeutic compound was submitted to the NCI60 drug screen.

E2F complexes = assay: E2F EMSA on extracts of treated breast cancer cell lines; type: cell-based; settings: 40 μM
Experimental: Several breast cancer cell lines were treated with 40 μM HLM006474 and extracts subjected to E2F EMSA assay.
(§4) Quantitative EMSA assays were performed in triplicate.

H292 = assay: Western blots of treated H292 cells; type: cell-based
Experimental: as §1

E2F4 [2] = target: T1, E2F4; assay: E2F4 DNA-binding EMSA on whole cell extracts of treated A375 cells; type: cell-based; settings: for effect on E2F4 DNA-binding activity: 9-hrs
Experimental: Whole cell extracts of treated cells were prepared and the DNA-binding activity of E2F4 measured by EMSA.
PhosphoImager EMSA signals from four independent experiments were quantified using ImageQuant and the results are graphed in FIG. 10B. The apparent IC50 (drug concentration required to reduce total E2F4 DNA-binding activity by 50% of untreated cells was calculated using the Statistical Analysis System (Proc Probit)).
To determine the activity of the therapeutic compound over time, A375 cells were treated with 40-μM of compound and examined at 0-, 3-, 6-, 9-, 12-, 18- and 24-hrs by EMSA and western (FIG. 11A).
as §4
Target sequence in this assay (Q16254 2-413 limits assumed): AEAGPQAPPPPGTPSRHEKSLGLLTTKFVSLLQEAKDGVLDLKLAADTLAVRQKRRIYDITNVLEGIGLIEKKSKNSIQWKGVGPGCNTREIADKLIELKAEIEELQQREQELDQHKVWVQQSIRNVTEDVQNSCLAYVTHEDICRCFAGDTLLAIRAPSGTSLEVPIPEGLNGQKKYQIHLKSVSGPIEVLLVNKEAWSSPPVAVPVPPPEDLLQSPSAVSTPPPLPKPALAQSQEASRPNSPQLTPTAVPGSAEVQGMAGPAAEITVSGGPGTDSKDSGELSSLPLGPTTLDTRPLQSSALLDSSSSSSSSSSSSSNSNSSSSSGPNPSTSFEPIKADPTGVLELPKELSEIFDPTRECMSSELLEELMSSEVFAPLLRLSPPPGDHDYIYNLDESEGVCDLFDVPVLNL
Target sequence in this assay (Q14186 whole entry partner): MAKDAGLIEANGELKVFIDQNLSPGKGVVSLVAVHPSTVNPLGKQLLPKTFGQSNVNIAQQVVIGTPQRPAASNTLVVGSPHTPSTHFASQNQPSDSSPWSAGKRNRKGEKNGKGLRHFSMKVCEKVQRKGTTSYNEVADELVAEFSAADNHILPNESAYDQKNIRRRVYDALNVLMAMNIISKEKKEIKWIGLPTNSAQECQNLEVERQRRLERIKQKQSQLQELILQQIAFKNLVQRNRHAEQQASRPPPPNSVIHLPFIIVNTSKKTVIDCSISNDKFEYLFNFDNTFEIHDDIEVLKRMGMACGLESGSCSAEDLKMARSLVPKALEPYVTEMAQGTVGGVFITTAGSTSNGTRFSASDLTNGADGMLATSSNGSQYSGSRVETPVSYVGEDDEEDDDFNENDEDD

lung cancer cell lines = assay: CT Blue Viability Assay, drug combinations; type: cell-based; settings: combination with taxol
Experimental: The indicated lung cancer cell lines were exposed to taxol, cisplatin, or gemacitabine alone, the therapeutic compound alone, or a combination as indicated. These experiments and analysis were performed in the Experimental Therapeutics Core using the CT Blue Viability Assay.

E2F4-deficient MEFs = assay: Apoptosis (ApoBrdU, PARP western) in E2F4-deficient MEFs; type: cell-based, mouse
Experimental: FIG. 12A: MEFS derived from sibling WT and E2F4^−/− mice were treated for 24-hrs with the indicated doses of HLM006474. Apoptosis was determined using ApoBrdU (BD Pharmingen).
FIG. 12B: MEFS derived from sibling WT and E2F4^−/− mice were treated as in A subjected to western blotting using a PARP antibody or E2F4 antibody. PARP cleavage (as indicated by the arrow) is an independent measure of apoptosis.
To determine if the effect of the therapeutic compound is dependent upon E2F4, the inventors compared the therapeutic compound response of immortalized MEFs derived from E2F4-deficient mice with MEFS derived from wildtype siblings.

H358 = assay: Western blots of treated H358 cells; type: cell-based; settings: H358, 40 micromolar, 24 hrs
Experimental: The indicated NSCLC lines were treated with 40 micromolar the therapeutic compound and subjected western blotting 24 hrs later using the indicated antibodies.

MDA-MB-231 = assay: Apo-BrdU TUNEL apoptosis assay, MDA-MB-231; type: cell-based, human; settings: 40-μM, 24-hrs
From the text: as §2, §3

H460 = assay: Western blots of treated H460 cells; type: cell-based
Experimental: as §1

E2F4 immunoreactive truncation product (E2F4 [1]): appearance of a 40 kD band
effect on E2F4 DNA-binding activity (E2F4 [2]; 10 and 20-μM): limited effect
reduction of E2F4 activity (E2F4 [2]; 40-μM drug, expected from dose response): 50-75%
effect on E2F4 DNA-binding activity (E2F4 [2]; 40-μM): inhibition is clearly apparent
IC50 (E2F4 [2]; A375 cells treated 9-hrs, EMSA, Proc Probit, read-out: IC50 (drug concentration required to reduce total E2F4 DNA-binding activity by 50% of untreated cells)): 29.8 µM
IC50 (E2F4 [2]; as restated for the NCI60 screen, read-out: known IC50): 30 µM
time at which inhibition of E2F4 DNA-binding activity became apparent (E2F4 [2]; single 40-μM dose): 9 h
SMILES: CCOc1ccc(C(Nc2ccccn2)c2ccc3ccc(C)nc3c2O)cc1C (stereo not drawn) [HLM006474]
Mcl-1 (western) (A549; A549, 40-μM): downregulation of Mcl-1
sensitivity (downregulation of E2F1 and E2F4, PARP cleavage) (A549; A549, various concentrations, 24 hr): limited sensitivity
Bcl-2 (western) (H1299; H1299, 40-μM): significant downregulation
Mcl-1 (western) (H1299; H1299, 40-μM): no change
sensitivity (downregulation of E2F1 and E2F4, PARP cleavage) (H1299; H1299, various concentrations, 24 hr): very sensitive
IC50 (8226-MR20): 46 ± 6 µM
apoptosis (TUNEL) (A375): dramatic induction of apoptosis
Rb at the mRNA level (231 cells): no significant change
p21 mRNA (231 cells): upregulated
growth inhibition in NCI60 cell lines (NCI60 cell lines): significantly growth inhibited
DNA-binding of all E2F complexes (EMSA) (E2F complexes): inhibited
Mcl-1 (western) (H292; H292, 40-μM): downregulation of Mcl-1
sensitivity (downregulation of E2F1 and E2F4, PARP cleavage) (H292; H292, various concentrations, 24 hr): limited sensitivity
synergy with taxol (lung cancer cell lines): synergizes significantly
sensitivity of E2F4 knockout MEFs versus cells from littermate animals (E2F4-deficient MEFs): less sensitive
concentration required to detect PARP cleavage (E2F4-deficient MEFs; E2F4-deficient MEFs): 60 µM
cyclin A or E2F1 (western) (H358): no decrease
apoptosis (TUNEL) (MDA-MB-231): dramatic induction of apoptosis
Bcl-2 or Mcl-2 (western) (H460; H460, 40-μM): did not show changes
sensitivity (downregulation of E2F1 and E2F4, PARP cleavage) (H460; H460, various concentrations, 24 hr): very sensitive
